According to patent publication US20210405025A1, “IDENTIFYING COMPOUNDS FOR TREATING CANCER AND USE THEREOF” (THE UAB RESEARCH FOUNDATION, priority 2018, published 2021):
pIC50: −log10 of the molar value. Like-named read-outs stand apart in the source and are kept apart here.

What was measured:
AML patient samples = experiment: 10-point dose-response drug screen of statins against AML patient samples, 3-day drug sensitivity assay; format: cell-based, human; settings: for pIC50: 3-day assay; for statin-mediated killing: highly sensitive cases 285, 340 and 290, result in words
Experimental: Drug sensitivity assays were performed using a 1,536-well platform where all cells and reagents were deposited in wells using an acoustic liquid handling unit that is highly accurate for dispensing of nanoliter volumes of liquid. […] After dispensing the cells into the wells, an independent drug at a known concentration is added to each well and incubated with the cells. After three days, the percentage of live cells in each well is determined to assess the killing efficiency of each compound. […] Cell viability assays are known to those of skill in the art. See, for example, Pemovska et al., Individualized systems medicine strategy to tailor treatments for patients with chemorefractory acute myeloid leukemia. Cancer Discovery 3:1416-1429, 2013; Pabst et al., Identification of small molecules that support human leukemia stem cell activity ex vivo. Nature Methods 11:436-442, 2014; Baccelli et al., A novel approach for the identification of efficient combination therapies in primary human acute myeloid leukemia specimens. Blood Cancer Journal 7:e529, 2017. In studies described herein, the 1,536-well format was utilized, which allowed for use of four times fewer cells as well as less drug and media components due to the small assay volume of 5 microliters. […] Other compounds like CellTiter-Glo (Promega, Madison, Wis.) are equally appropriate reagents for determining cell viability.
Conditions for the drug screening assays were as described in Pabst et al., Identification of small molecules that support human leukemia stem cell activity ex vivo, Nature Methods 11:436-442, 2014). Using this protocol, cells were cultured in Iscove's Modified Dulbecco's Medium (IMDM), 15% BIT (bovine serum albumin, insulin, transferrin; Stem Cell Technologies 09500 (Vancouver, Calif.)), 100 ng/ml SCF (Shenandoah 100-04 (Warwick, Pa.)), 50 ng/ml FLT3L (Shenandoah 100-21), 20 ng/ml IL-3 (Shenandoah 100-80), 20 ng/ml G-CSF (Shenandoah 100-72), 10^-4 M β-mercaptoethanol, gentamicin (50 μg/ml) and ciprofloxacin (10 μg/ml).
Cells were removed from liquid nitrogen and placed in a 37° C. bath, just until thawed. For 1,536-well screens utilizing 6,000 wells about 100 million cells were thawed. The volume was doubled with pre-warmed culture media and placed on ice for about one to two minutes. The cells were brought to a final volume of about 8 to 10 mL before spinning down at 1,100 rpm for 5 min at 10° C. The pelleted cells were resuspended in 10 mL of culture media and plated in a tissue-culture treated T75 flask at a density of 1 to 2 million cells/ml. The cells were cultured overnight prior to fluorescence-activated cell sorting of viable cells on the following day.
After cells were cultured overnight, a cell scraper was used to remove any cells that adhered to the plastic. The cells were gently pipetted up and down to break up aggregates. Then, the entire volume was transferred to a 50 mL conical tube through a 70 micron cell strainer to remove cell clumps. The T75 flask was rinsed and scraped with about 10 mL HBSS and transferred to the same 50 mL conical tube through the strainer. The harvested cells were spun down at 1,100 rpm for 5 min at 10° C. The cells were then resuspendd in about 300-500 microliters FACS buffer (HBSS+2% FBS+1× propidium iodide) and transferred to a FACS tube. The tube was placed on ice and viable cells that are forward- and side-scatter gated on viable myeloid blasts were sorted by FACS (the scatter gate should exclude small lymphocytes, large myeloid cells, and debris). After sorting the required number of viable cells, the cells were spun down at 1,100 rpm for 5 min at 10° C. and subsequently resuspended at 4,000-4,500 cells per 5 microliter volume of complete culture media with growth factors and penicillin/streptomycin.

relapsed AML cells = experiment: Drug sensitivity assay, 1,536-well, 3-day culture with individual approved drugs at 10 μM, viability by alamarBlue; format: cell-based, human; settings: number of relapsed AML cases out of 18 tested with >70% cell death; 10 μM, 3-day culture
Procedure, shortened: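 FACS-sorted viable myeloid blasts from thawed AML samples, 4,000-4,500 cells per 5 μL well, cultured in IMDM with 15% BIT, SCF, FLT3L, IL-3, G-CSF. Drugs added per well; after three days percentage of live cells measured to gauge killing.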

[1] = read-out: In vivo cMax; plasma concentration achievable in vivo at the FDA-recommended dose and schedule; cited from earlier work
[2] = target: cGMP-inhibited phosphodiesterase (PDE3); settings: cited from earlier work
[3] = Homo sapiens, 72 h, patient sample AML 280, read-out: IC50 AML 280
[4] = Homo sapiens, 72 h, patient sample AML 285, read-out: IC50 AML 285
[5] = Homo sapiens, 72 h, patient sample AML 290, read-out: IC50 AML 290
[6] = Homo sapiens, 72 h, patient sample AML 297, read-out: IC50 AML 297
[7] = Homo sapiens, 72 h, patient sample AML 299, read-out: IC50 AML 299
[8] = Homo sapiens, 72 h, patient sample AML 307, read-out: IC50 AML 307
[9] = Homo sapiens, 72 h, patient sample AML 330, read-out: IC50 AML 330
[10] = Homo sapiens, 72 h, patient sample AML 339, read-out: IC50 AML 339
[11] = Homo sapiens, 72 h, patient sample AML 340, read-out: IC50 AML 340
[12] = Homo sapiens, 72 h, patient sample AML 343, read-out: IC50 AML 343
[13] = patient sample AML 280, read-out: IC50 AML 280
[14] = patient sample AML 285, read-out: IC50 AML 285
[15] = patient sample AML 290, read-out: IC50 AML 290
[16] = patient sample AML 297, read-out: IC50 AML 297
[17] = patient sample AML 299, read-out: IC50 AML 299
[18] = patient sample AML 307, read-out: IC50 AML 307
[19] = patient sample AML 330, read-out: IC50 AML 330
[20] = patient sample AML 339, read-out: IC50 AML 339
[21] = patient sample AML 340, read-out: IC50 AML 340
[22] = patient sample AML 343, read-out: IC50 AML 343

CC(C)n1c(/C=C/C(O)CC(O)CC(=O)O)c(-c2ccc(F)cc2)c2ccccc21 (stereo not shown) [FLUVASTATIN]
pIC50 (AML patient samples; [3]): 5.62 | pIC50 (AML patient samples; [4]): 6.37 | pIC50 (AML patient samples; [5]): 6.38 | pIC50 (AML patient samples; [6]): < 5.00 | pIC50 (AML patient samples; [7]): 5.42 | pIC50 (AML patient samples; [8]): 5.80 | pIC50 (AML patient samples; [9]): < 5.00 | pIC50 (AML patient samples; [10]): 5.11 | pIC50 (AML patient samples; [11]): 6.14 | pIC50 (AML patient samples; [12]): < 5.00 | #Cases >70% cell death (relapsed AML cells): 7 | Cmax [1]: 490 nM

COc1cc2c(cc1OC)-c1c/c(=N\c3c(C)cc(C)cc3C)n(C)c(=O)n1CC2.Cl [TREQUINSINçHCL]
pIC50 [2]: 9.60 | #Cases >70% cell death (relapsed AML cells): 1

O=C([O-])C[C@H](O)C[C@H](O)/C=C/c1c(C2CC2)nc2ccccc2c1-c1ccc(F)cc1.O=C([O-])C[C@H](O)C[C@H](O)/C=C/c1c(C2CC2)nc2ccccc2c1-c1ccc(F)cc1.[Ca+2] [PITAVASTATIN CALCIUM]
statin-mediated killing (AML patient samples): most significant activity | pIC50 (AML patient samples; [13]): 5.87 | pIC50 (AML patient samples; [14]): 6.80 | pIC50 (AML patient samples; [15]): 6.83 | pIC50 (AML patient samples; [16]): < 5.00 | pIC50 (AML patient samples; [17]): 5.74 | pIC50 (AML patient samples; [18]): 6.14 | pIC50 (AML patient samples; [19]): 5.01 | pIC50 (AML patient samples; [20]): 5.28 | pIC50 (AML patient samples; [21]): 6.32 | pIC50 (AML patient samples; [22]): < 5.00 | #Cases >70% cell death (relapsed AML cells): 13 | Cmax [1]: 250 nM

CC[C@H](C)C(=O)O[C@H]1C[C@@H](C)C=C2C=C[C@H](C)[C@H](CC[C@@H]3C[C@@H](O)CC(=O)O3)[C@H]21 [LOVASTATIN]
pIC50 (AML patient samples; [3]): < 5.00 | pIC50 (AML patient samples; [4]): 5.42 | pIC50 (AML patient samples; [5]): 5.36 | pIC50 (AML patient samples; [6]): < 5.00 | pIC50 (AML patient samples; [7]): < 5.00 | pIC50 (AML patient samples; [8]): < 5.00 | pIC50 (AML patient samples; [9]): < 5.00 | pIC50 (AML patient samples; [10]): < 5.00 | pIC50 (AML patient samples; [11]): 5.05 | pIC50 (AML patient samples; [12]): < 5.00 | #Cases >70% cell death (relapsed AML cells): 2

CCC(C)(C)C(=O)O[C@H]1C[C@@H](C)C=C2C=C[C@H](C)[C@H](CC[C@@H]3C[C@@H](O)CC(=O)O3)[C@H]21 [SIMVASTATIN]
pIC50 (AML patient samples; [4]): < 5.00 | pIC50 (AML patient samples; [5]): < 5.00 | pIC50 (AML patient samples; [6]): 5.16 | pIC50 (AML patient samples; [7]): < 5.00 | pIC50 (AML patient samples; [8]): < 5.00 | pIC50 (AML patient samples; [9]): < 5.00 | pIC50 (AML patient samples; [10]): 5.29 | pIC50 (AML patient samples; [11]): < 5.00 | pIC50 (AML patient samples; [12]): < 5.00 | #Cases >70% cell death (relapsed AML cells): 6

CC(C)c1c(C(=O)Nc2ccccc2)c(-c2ccccc2)c(-c2ccc(F)cc2)n1CC[C@@H](O)C[C@@H](O)CC(=O)[O-].CC(C)c1c(C(=O)Nc2ccccc2)c(-c2ccccc2)c(-c2ccc(F)cc2)n1CC[C@@H](O)C[C@@H](O)CC(=O)[O-].[Ca+2] [ATORVASTATIN CALCIUM]
statin-mediated killing (AML patient samples): most significant activity | pIC50 (AML patient samples; [13]): 5.65 | pIC50 (AML patient samples; [14]): 6.32 | pIC50 (AML patient samples; [15]): 6.23 | pIC50 (AML patient samples; [16]): < 5.00 | pIC50 (AML patient samples; [17]): 5.54 | pIC50 (AML patient samples; [18]): 5.96 | pIC50 (AML patient samples; [19]): < 5.00 | pIC50 (AML patient samples; [20]): 5.04 | pIC50 (AML patient samples; [21]): 6.14 | pIC50 (AML patient samples; [22]): < 5.00 | #Cases >70% cell death (relapsed AML cells): 12

CC[C@H](C)C(=O)O[C@H]1C[C@H](O)C=C2C=C[C@H](C)[C@H](CC[C@@H](O)C[C@@H](O)CC(=O)O)[C@H]21 [PRAVASTATIN]
pIC50 (AML patient samples; [3]): < 5.00 | pIC50 (AML patient samples; [4]): < 5.00 | pIC50 (AML patient samples; [5]): < 5.00 | pIC50 (AML patient samples; [6]): < 5.00 | pIC50 (AML patient samples; [7]): < 5.00 | pIC50 (AML patient samples; [8]): < 5.00 | pIC50 (AML patient samples; [9]): < 5.00 | pIC50 (AML patient samples; [10]): < 5.00 | pIC50 (AML patient samples; [11]): < 5.00 | pIC50 (AML patient samples; [12]): < 5.00 | #Cases >70% cell death (relapsed AML cells): 1

CC(C)c1nc(N(C)S(C)(=O)=O)nc(-c2ccc(F)cc2)c1/C=C/[C@@H](O)C[C@@H](O)CC(=O)[O-].CC(C)c1nc(N(C)S(C)(=O)=O)nc(-c2ccc(F)cc2)c1/C=C/[C@@H](O)C[C@@H](O)CC(=O)[O-].[Ca+2] [ROSUVASTATIN CALCIUM (Crestor), ROSUVASTATIN CALCIUM]
pIC50 (AML patient samples; [13]): 5.08 | pIC50 (AML patient samples; [14]): 5.83 | pIC50 (AML patient samples; [15]): 5.84 | pIC50 (AML patient samples; [16]): < 5.00 | pIC50 (AML patient samples; [17]): < 5.00 | pIC50 (AML patient samples; [18]): 5.42 | pIC50 (AML patient samples; [19]): < 5.00 | pIC50 (AML patient samples; [20]): < 5.00 | pIC50 (AML patient samples; [21]): 5.60 | pIC50 (AML patient samples; [22]): < 5.00 | #Cases >70% cell death (relapsed AML cells): 9
